The values that follow come from US9884832B2 (priority 2011, dated 2018).

Test [1] has as its target AM2 S31N (serine→asparagine mutation at residue 31 in the M2 protein) (Influenza A virus, UniProt P0DOF5, S31N). It counts as cell-based, influenza virus A/Udorn/72.
Test [2] has as its target AM2 V27A (valine→alanine mutation at residue 27 in the M2 protein) (Influenza A virus, UniProt P0DOF5, V27A). It is filed as cell-based, influenza virus A/Udorn/72.

Read-outs that look alike come from different tables or passages of the source.

As to `c1ncc(CCNCC23CC4CC(CC(C4)C2)C3)[nH]1` [Example 1, Adamantan-1-ylmethyl-[2-(3H-imidazol-4-yl)-ethyl]-amine], the “S31N OOcyte Inhibition at 100 uM (%)” value in test [1] (pH 5.5) is “B (key: (A)=31-95%; (B)=0-30%)”. The “V27A OOcyte Inhibition at 100 uM (%)” value in test [2] (pH 5.5) was “B (key: (A)=31-95%; (B)=0-30%)”. For the compound `CCOc1ccc(CNC23CC4CC(CC(C4)C2)C3)cc1` [Example 1a, Adamantan-1-yl-(4-ethoxy-benzyl)-amine], the “S31N OOcyte Inhibition at 100 uM (%)” value in test [1] was “A (key: (A)=31-95%; (B)=0-30%)”. The “V27A OOcyte Inhibition at 100 uM (%)” value in test [2] is given as “B (key: (A)=31-95%; (B)=0-30%)”. With `OCC(Cc1cnc[nH]1)NCC12CC3CC(CC(C3)C1)C2` (centres unmarked) [Example 2, 2-[(adamantan-1-ylmethyl)-amino]-3-(3H-imidazol-4-yl)-propan-1-ol], in test [1] (pH 5.5), the “S31N OOcyte Inhibition at 100 uM (%)” value was “B (key: (A)=31-95%; (B)=0-30%)”. Further, in test [2] (pH 5.5), the “V27A OOcyte Inhibition at 100 uM (%)” value is reported as “B (key: (A)=31-95%; (B)=0-30%)”.

In the case of `F[B-](F)(F)c1ccc(CNC23CC4CC(CC(C4)C2)C3)cc1.[K+]` [Example 2a], in test [1], the “S31N OOcyte Inhibition at 100 uM (%)” value is listed as “B (key: (A)=31-95%; (B)=0-30%)”. The “V27A OOcyte Inhibition at 100 uM (%)” value in test [2] is listed as “A (key: (A)=31-95%; (B)=0-30%)”. In the case of `COC(=O)C(Cc1cnc[nH]1)NCC12CC3CC(CC(C3)C1)C2` (centres unmarked) [Example 3, 2-[(Adamantan-1-ylmethyl)-amino]-3-(3H-imidazol-4-yl)-propionic acid methyl ester], the “S31N OOcyte Inhibition at 100 uM (%)” value in test [1] (pH 5.5) was “B (key: (A)=31-95%; (B)=0-30%)”. Also, the “V27A OOcyte Inhibition at 100 uM (%)” value in test [2] (pH 5.5) is listed as “B (key: (A)=31-95%; (B)=0-30%)”.

For the compound `Brc1cccc(CNC23CC4CC(CC(C4)C2)C3)c1` [Example 3a, N-(3-Bromobenzyl)adamantan-1-amine], the “S31N OOcyte Inhibition at 100 uM (%)” value in test [1] was “B (key: (A)=31-95%; (B)=0-30%)”. Besides, in test [2], the “V27A OOcyte Inhibition at 100 uM (%)” value is “B (key: (A)=31-95%; (B)=0-30%)”.

As to `CC(NCc1ccc(O)cc1)C12CC3CC(CC(C3)C1)C2` (centres unmarked) [Example 4, 4-[(1-Adamantan-1-yl-ethylamino)-methyl]-phenol], in test [1] (pH 5.5), the “S31N OOcyte Inhibition at 100 uM (%)” value was “B (key: (A)=31-95%; (B)=0-30%)”. In addition, the “V27A OOcyte Inhibition at 100 uM (%)” value in test [2] (pH 5.5) is “B (key: (A)=31-95%; (B)=0-30%)”. As to `FC(F)(F)Oc1ccc(CNC23CC4CC(CC(C4)C2)C3)cc1` [Example 4a, Adamantan-1-yl-(4-trifluoromethoxy-benzyl)-amine], in test [1], the “S31N OOcyte Inhibition at 100 uM (%)” value was “B (key: (A)=31-95%; (B)=0-30%)”. For the same compound, the “V27A OOcyte Inhibition at 100 uM (%)” value in test [2] is “B (key: (A)=31-95%; (B)=0-30%)”. Regarding `N=C(Nc1ccc(O)cc1)C12CC3CC(CC(C3)C1)C2` [Example 5], the “S31N OOcyte Inhibition at 100 uM (%)” value in test [1] (pH 5.5) is recorded as “B (key: (A)=31-95%; (B)=0-30%)”. The “V27A OOcyte Inhibition at 100 uM (%)” value in test [2] (pH 5.5) is “B (key: (A)=31-95%; (B)=0-30%)”. Regarding `FC(F)(F)c1ccc(CNC23CC4CC(CC(C4)C2)C3)cc1` [Example 5a, Adamantan-1-yl-(4-trifluoromethyl-benzyl)-amine], the “S31N OOcyte Inhibition at 100 uM (%)” value in test [1] is on record as “B (key: (A)=31-95%; (B)=0-30%)”. The “V27A OOcyte Inhibition at 100 uM (%)” value in test [2] is “B (key: (A)=31-95%; (B)=0-30%)”. On to `Oc1ccc(/C=N/C23CC4CC(CC(C4)C2)C3)cc1` [Example 6], for which the “S31N OOcyte Inhibition at 100 uM (%)” value in test [1] (pH 5.5) is on record as “B (key: (A)=31-95%; (B)=0-30%)”. In addition, the “V27A OOcyte Inhibition at 100 uM (%)” value in test [2] (pH 5.5) is “B (key: (A)=31-95%; (B)=0-30%)”. Turning to `C[Si](C)(C)c1ccc(CNC23CC4CC(CC(C4)C2)C3)cc1` [Example 6a, Adamantan-1-yl-(4-trimethylsilanyl-benzyl)-amine], the “S31N OOcyte Inhibition at 100 uM (%)” value in test [1] is “A (key: (A)=31-95%; (B)=0-30%)”. For the same compound, the “V27A OOcyte Inhibition at 100 uM (%)” value in test [2] is on record as “B (key: (A)=31-95%; (B)=0-30%)”. For the compound `Oc1ccc(/C=N/C23CC4CC(CC(C4)C2)C3)c(O)c1` [Example 7], in test [1] (pH 5.5), the “S31N OOcyte Inhibition at 100 uM (%)” value is on record as “B (key: (A)=31-95%; (B)=0-30%)”. Further, in test [2] (pH 5.5), the “V27A OOcyte Inhibition at 100 uM (%)” value is given as “A (key: (A)=31-95%; (B)=0-30%)”. Turning to `CC(C)(C)c1ccc(CNC23CC4CC(CC(C4)C2)C3)cc1` [Example 7a, N-(4-(tert-Butyl)benzyl)adamantan-1-amine methanesulfonate], the “S31N OOcyte Inhibition at 100 uM (%)” value in test [1] is on record as “A (key: (A)=31-95%; (B)=0-30%)”. Moreover, the “V27A OOcyte Inhibition at 100 uM (%)” value in test [2] is “B (key: (A)=31-95%; (B)=0-30%)”. For the compound `c1ccc(CNC23CC4CC(CC(C4)C2)C3)cc1` [Example 8, Adamantan-1-yl-benzyl-amine], the “S31N OOcyte Inhibition at 100 uM (%)” value in test [1] (pH 5.5) was “B (key: (A)=31-95%; (B)=0-30%)”. In addition, the “V27A OOcyte Inhibition at 100 uM (%)” value in test [2] (pH 5.5) is recorded as “B (key: (A)=31-95%; (B)=0-30%)”. As to `Oc1ccc(CNC23CC4CC(CC(C4)C2)C3)cc1` [Example 9, 4-(Adamantan-1-ylaminomethyl)-phenol], the “S31N OOcyte Inhibition at 100 uM (%)” value in test [1] (pH 5.5) is “A (key: (A)=31-95%; (B)=0-30%)”. In addition, the “V27A OOcyte Inhibition at 100 uM (%)” value in test [2] (pH 5.5) was “B (key: (A)=31-95%; (B)=0-30%)”. For the compound `c1cc(C2CCCCC2)ccc1CNC12CC3CC(CC(C3)C1)C2` [Example 10a, Adamantan-1-yl-(4-cyclohexyl-benzyl)-amine], the “S31N OOcyte Inhibition at 100 uM (%)” value in test [1] is “A (key: (A)=31-95%; (B)=0-30%)”. The “V27A OOcyte Inhibition at 100 uM (%)” value in test [2] is reported as “B (key: (A)=31-95%; (B)=0-30%)”. As to `Nc1ccc(CNC23CC4CC(CC(C4)C2)C3)cc1` [Example 11, Adamantan-1-yl-(4-amino-benzyl)-amine], the “S31N OOcyte Inhibition at 100 uM (%)” value in test [1] (pH 5.5) is “B (key: (A)=31-95%; (B)=0-30%)”. For the same compound, the “V27A OOcyte Inhibition at 100 uM (%)” value in test [2] (pH 5.5) was “B (key: (A)=31-95%; (B)=0-30%)”. On to `COc1ccc(C(C)NC23CC4CC(CC(C4)C2)C3)cc1` (centres unmarked) [Example 11a, N-(1-(4-methoxyphenyl)ethyl)adamantan-1-amine], for which, in test [1], the “S31N OOcyte Inhibition at 100 uM (%)” value is “A (key: (A)=31-95%; (B)=0-30%)”. Moreover, the “V27A OOcyte Inhibition at 100 uM (%)” value in test [2] is on record as “A (key: (A)=31-95%; (B)=0-30%)”. In the case of `CC(C)(C)OC(=O)Nc1ccc(CNC23CC4CC(CC(C4)C2)C3)cc1` [Example 12, [4-(Adamantan-1-ylaminomethyl)-phenyl]carbamic acid tert-butyl ester], the “S31N OOcyte Inhibition at 100 uM (%)” value in test [1] (pH 5.5) is listed as “B (key: (A)=31-95%; (B)=0-30%)”. For the same compound, the “V27A OOcyte Inhibition at 100 uM (%)” value in test [2] (pH 5.5) was “B (key: (A)=31-95%; (B)=0-30%)”. On to `c1csc(C2=NOC(CNC34CC5CC(CC(C5)C3)C4)C2)c1` (centres unmarked) [Example 168a, N-((3-(thiophen-2-yl)-4,5-dihydroisoxazol-5-yl)methyl)adamantan-1-amine], for which, in test [1], the “S31N OOcyte Inhibition at 100 uM (%)” value is “A (key: (A)=31-95%; (B)=0-30%)”. Still for that read-out and setting: then `Clc1cc2cc(CNC34CC5CC(CC(C5)C3)C4)sc2s1` [Example 173a, Adamantan-1-yl-(5-chloro-thieno[2,3-b]thiophen-2-ylmethyl)-amine], with “A (key: (A)=31-95%; (B)=0-30%)”. Turning to `Cn1c(CNC23CC4CC(CC(C4)C2)C3)nc2ccccc21` [Example 180a, Adamantan-1-yl-(1-methyl-1H-benzoimidazol-2-ylmethyl)-amine], the “S31N OOcyte Inhibition at 100 uM (%)” value in test [1] is “B (key: (A)=31-95%; (B)=0-30%)”. Take `Clc1ccc2[nH]c(CNC34CC5CC(CC(C5)C3)C4)nc2c1` [Example 181a, Adamantan-1-yl-(5-chloro-1H-benzoimidazol-2-ylmethyl)-amine]: the “S31N OOcyte Inhibition at 100 uM (%)” value in test [1] is listed as “A (key: (A)=31-95%; (B)=0-30%)”. With `COc1ccc2[nH]c(CNC34CC5CC(CC(C5)C3)C4)cc2c1` [Example 182a], the “S31N OOcyte Inhibition at 100 uM (%)” value in test [1] was “A (key: (A)=31-95%; (B)=0-30%)”. As to `Clc1cccc2cc(CNC34CC5CC(CC(C5)C3)C4)sc12` [Example 183a, Adamantan-1-yl-(7-chloro-benzo[b]thiophen-2-ylmethyl)-amine], in test [1], the “S31N OOcyte Inhibition at 100 uM (%)” value is on record as “B (key: (A)=31-95%; (B)=0-30%)”. As to `Cc1cccc2nc(CNC34CC5CC(CC(C5)C3)C4)[nH]c12` [Example 184a, Adamantan-1-yl-(7-methyl-1H-benzoimidazol-2-ylmethyl)-amine], the “S31N OOcyte Inhibition at 100 uM (%)” value in test [1] is “A (key: (A)=31-95%; (B)=0-30%)”. Consider `OC12CC3CC(C1)CC(NCc1ccc(Cl)s1)(C3)C2` [Example 189a, 3-[(5-Chloro-thiophen-2-ylmethyl)-amino]adamantan-1-ol], for which the “S31N OOcyte Inhibition at 100 uM (%)” value in test [1] is recorded as “B (key: (A)=31-95%; (B)=0-30%)”. Same read-out and setting: in the case of `COC(=O)c1ccc(-c2ccc(CNC34CC5CC(CC(O)(C5)C3)C4)cc2)cc1` [Example 190a, 4′-[(3-Hydroxy-adamantan-1-ylamino)-methyl]-biphenyl-4-carboxylic acid methyl ester] it was “A (key: (A)=31-95%; (B)=0-30%)”. As to `OC12CC3CC(C1)CC(NCc1cc4sccc4s1)(C3)C2` [Example 192a, 3-[(Thieno[3,2-b]thiophen-2-ylmethyl)-amino]-adamantan-1-ol], the “S31N OOcyte Inhibition at 100 uM (%)” value in test [1] is recorded as “A (key: (A)=31-95%; (B)=0-30%)”. Consider `C[Si](C)(C)c1ccc(CNC23CC4CC(CC(O)(C4)C2)C3)cc1` [Example 193a, (1s,3r,5R,7S)-3-((4-(trimethylsilyl)benzyl)amino)adamantan-1-ol], for which the “S31N OOcyte Inhibition at 100 uM (%)” value in test [1] is “A (key: (A)=31-95%; (B)=0-30%)”.

As to `OC12CC3CC(C1)CC(NCc1cc(-c4ccccc4)on1)(C3)C2` [Example 194a, (1s,3r,5R,7S)-3-(((5-phenylisoxazol-3-yl)methyl)amino)adamantan-1-ol], the “S31N OOcyte Inhibition at 100 uM (%)” value in test [1] is given as “A (key: (A)=31-95%; (B)=0-30%)”. The same measure, in the same setting: then `OC12CC3CC(C1)CC(NCc1cc4cc(Br)sc4s1)(C3)C2` [Example 195a, 3-[(5-Bromo-thieno[2,3-b]thiophen-2-ylmethyl)-amino]-adamantan-1-ol], with “A (key: (A)=31-95%; (B)=0-30%)”; and `Oc1ccc(CNC23CC4CC(CC(O)(C4)C2)C3)c(O)c1` [Example 196a, 4-[(3-Hydroxy-adamantan-1-ylamino)-methyl]-benzene-1,3-diol], with “A (key: (A)=31-95%; (B)=0-30%)”; and `COc1ccc2nc(CN(Cc3nc4ccc(OC)cc4[nH]3)C34CC5CC(CC(C5)C3)C4)[nH]c2c1` [Example 201a, Adamantan-1-yl-bis-(6-methoxy-1H-benzoimidazol-2-ylmethyl)-amine], with “B (key: (A)=31-95%; (B)=0-30%)”. Take `Cc1ncc(CN(Cc2cnc(C)s2)C23CC4CC(CC(C4)C2)C3)s1` [Example 202a, N,N-bis((2-methylthiazol-5-yl)methyl)adamantan-1-amine]: the “S31N OOcyte Inhibition at 100 uM (%)” value in test [1] is recorded as “B (key: (A)=31-95%; (B)=0-30%)”.
